# Laboratory results as given in patent US12274830B2, “Nitric oxide inhalation therapy for infants with bronchiolitis” (BEYOND AIR LTD, priority 2015, dated 2025).
# Entries after “also recorded” stand apart in the source; their conditions may differ.
# Key:
# [1] = test system: infants with acute bronchiolitis; assay: Safety and tolerability of intermittent inhalations of 160 ppm NO in hospitalized infants with acute bronchiolitis (randomized double blind study); assay type: in vivo, human
# Procedure: The study was conducted at the Soroka University Medical Center in southern Israel, and was approved by the Institutional and National Human Ethics Committee. A detailed study overview is attached as an online supplement. This study is registered with clinical trial number NCT01768884.
# The study was a randomized, prospective, single center, double blind study of 2-11 month old hospitalized infants with acute bronchiolitis (FIG. 1).
# Subjects were screened within 4 hours of admission and randomized (1:1) to receive intermittent inhalations of 160 ppm NO along with standard treatment (NO group) or intermittent inhalations of 02/air mixture and standard treatment (control group), for a maximum of 25 inhalations.
# Standard Supportive Treatment: This treatment included humidified oxygen, nasal suction when needed and hydration (oral, intra-venous or nasogastric tube fluids). The use of other concomitant medications was allowed, according to the ward's common practice.
# Nitric Oxide Treatment: Subjects spontaneously inspired 160 ppm NO in fixed flow mode via a facemask. Nitric Oxide (Maxima, Israel) of 800 ppm (0.08%) NO balanced with 99.999% purity Nitrogen (N2), was titrated into the O2/air inspiratory delivery line. Inhaled NO, NO2 and O2 concentrations in the patient breathing circuit were continuously monitored using dedicated gas analyzers. (AeroNox, International medical, USA).
# Primary Outcome: Safety measures, included % MetHb and NO2 production associated with NO treatment, bleeding episodes and any other adverse event (AE). Study threshold for NO2 and MetHb was set at 5 ppm and 5%, respectively.
# The primary outcome was safety and tolerability of intermittent inhalations of 160 ppm NO, given to infants 2 to 11 months with acute bronchiolitis. Safety measures included % MetHb associated with NO treatment (safety threshold was determined as >5% for MetHb and >5 ppm for NO2), as well as any other AEs. Tolerability measures included the proportions of subjects who prematurely discontinued the study for any reason, and the proportion of subjects who prematurely discontinued the treatment due to severe SAEs.
# The research staff was divided into “blinded” and “unblinded” groups. The unblinded staff administered the inhalations to the infants and monitored % MetHb, % SpO2 (co-oximeter, RAD57/RAD 87, Masimo Corporation, USA), fractional inhaled O2 (FiO2), NO, NO2 levels. The blinded group included the primary investigator and all other staff directly involved with patient care. Safety threshold for NO2 and MetHb was set at 5 ppm and 5%, respectively. It should be emphasized that both treatments, NO/O2 (NO treatment) as well as O2/air mixture (control) were given via the same device, therefore, parents were also blinded to the treatment arm.
# Each patient was given 5 inhalations a day of NO (treatment group) or oxygen (control group), along with the standard supportive treatment, for a maximum of 25 inhalations (based on phase I safety data). Each participant was examined and evaluated using the severity symptom score by a blinded pediatricians every […] (9 am and 3 pm). When the room-air SpO2 reached 92%, and the score was ≤5, and the patient was assessed as “ready for discharge”, the treatment was discontinued.
# The data were managed and analyzed by independent statisticians group using the SAS version 9.1 (SAS Institute, Cary, North Carolina). […]
# Serracia sp. = details: 200 ppm gNO; cited from earlier work
# Klebsiella sp. #3 = details: 200 ppm gNO; cited from earlier work
# Enterobacter sp. = details: 200 ppm gNO; cited from earlier work
# [2] = test system: influenza virions or infected cell (MDCK); details: intermittent (30 minutes every 4 hours) 160 ppm exogenous gaseous NO; MDCK cell model; cited from earlier work
# [3] = NO Group (N = 21), Methemoglobin >5%
# [4] = NO Group (N = 21), NO2 concentration >5 ppm
# [5] = NO Group (N = 21), Oxyhemoglobin <89%
smiles,measurement,setting,value
"[N]=O [NO, nitric oxide]",Bleeding episodes or deaths during the study,[1]; 160 ppm NO intermittent inhalation,no bleeding episodes or deaths; also recorded: no bleeding episodes
same,NO2 elevations and clinical evidence of toxicity,[1]; 30 minutes of inhaled 160 ppm NO five time a day,neither associated with significant elevations in NO2 nor clinical evidence of toxicity; also recorded: no events of significant NO2 elevations
same,Safety and tolerability versus control (standard supportive treatment),"[1]; ITT, PP",no statistically significant safety and tolerability differences; also recorded: comparable to those in the standard-supportive treatment
same,"Any AE, events (E)",[1]; NO Group (N = 21),22 E
same,"Any serious AE, events (E)",[1]; NO Group (N = 21),4 E
same,"Any serious AE, subjects n (%)",[1]; NO Group (N = 21),4 (19.0%) n (%)
same,"Any serious treatment-related AE, events (E)",[1]; NO Group (N = 21),0 E
same,"Any severe AE, events (E)",[1]; NO Group (N = 21),1 E
same,"Any severe AE, subjects n (%)",[1]; NO Group (N = 21),1 (4.8%) n (%)
same,"Any treatment-related AE, events",[1]; NO Group (N = 21),6 E
same,"Death, events (E)",[1]; NO Group (N = 21),0 E
same,"Death, subjects n (%)",[1]; NO Group (N = 21),0 (0.0%) n (%)
same,"Treatment withdrawal due to AE, events (E)",[1]; NO Group (N = 21),1 E
same,"Treatment withdrawal due to AE, subjects n (%)",[1]; NO Group (N = 21),1 (4.8%) n (%)
same,"Treatment-related AE: Blood and Lymphatic System Disorders, Events",[1]; NO Group (N = 21),5 Events
same,"Treatment-related AE: Investigations, Events",[1]; NO Group (N = 21),1 Events
same,"Treatment-related AE: Blood and Lymphatic System Disorders, subjects n (%)","[1]; NO Group (N = 21), MedDRA SOC",4 (19.0%) n (%)
same,"Treatment-related AE: Investigations, subjects n (%)","[1]; NO Group (N = 21), MedDRA SOC",1 (4.8%) n (%)
same,"Treatment-related AE: Methaemoglobinaemia, Events",[1]; [3],5 Events
same,"Treatment-related AE: Methaemoglobinaemia, subjects n (%)",[1]; [3],4 (19.0%) n (%)
same,"Treatment-related AE: NO2 increase, Events",[1]; [4],1 Events
same,"Treatment-related AE: NO2 increase, subjects n (%)",[1]; [4],1 (4.8%) n (%)
same,"Treatment-related AE: Oxyemoglobin decreased, Events",[1]; [5],1 Events
same,"Treatment-related AE: Oxyemoglobin decreased, subjects n (%)",[1]; [5],1 (4.8%) n (%)
same,"Any AE, subjects n (%)","[1]; NO Group (N = 21), intermittent 160 ppm NO + standard treatment",10 (47.6%) n (%)
same,"Any treatment-related AE, subjects n (%)","[1]; NO Group (N = 21), possibly or probably related to study treatment",5 (23.8%) n (%)
same,Subjects in whom MetHb values >5% were observed more than once,[1]; NO group,3 subjects
same,"Subjects with MetHb measurement >5% during the study treatment period, n (%)",[1]; NO group,6 (28.5%) n (%)
same,MetHb peak value at end of inhalation (mean),"[1]; NO group, each NO inhalation",3.3±0.9%
same,Maximum MetHb value,"[1]; NO group, in two subjects",5.6%
same,"Subjects who discontinued the study/study treatment, n (%)","[1]; NO group, tolerability",2 (9.5%) n (%)
same,SpMet level of infants undergoing the method,[1]; general statement referring to the Examples,≤ 1%
same,Cumulative effect / accumulation of MetHb over the treatment period,[1]; pre- vs end of inhalation MetHb levels,no cumulative effect; also recorded: no accumulation of MetHb
same,+2.5 Log10,Serracia sp.,4.9 hours
same,LD100,Serracia sp.,6 h
same,Latent Period,Serracia sp.,4 h
same,+2.5 Log10,Klebsiella sp. #3,5.1 hours
same,LD100,Klebsiella sp. #3,6 h
same,Latent Period,Klebsiella sp. #3,3 h
same,+2.5 Log10,Enterobacter sp.,5.3 hours
same,LD100,Enterobacter sp.,6 h
same,Latent Period,Enterobacter sp.,4 h
same,Effect on influenza viral replication and infectivity,[2],"reduced not just viral replication, but also its infectivity"
